{"source": "patent US20220401951A1", "about": "“RAPID CELL CULTURE TEST DEVICE INCLUDING ISLAND STRUCTURES” (QuantaMatrix Inc., priority 2020, published 2022)", "system": "P. aeruginosa ATCC 27853", "assay": "antibiotic susceptibility test in the cell culture test device (solid thin film, microscopic observation)", "assay_type": "cell-based", "settings": "device of Example 1", "procedure": "Colistin as an antibiotic was loaded into the island structure through the third inlet portion of each of the well units. The antibiotic was loaded in an amount of 10 μl, dried, and fixed in the shape illustrated in (b) of FIG. 5.\nThereafter, 10 μl of a mixture of agarose and a bacterial solution (P. aeruginosa ATCC 27853) as a first fluid was dispensed into the first accommodation space through the first inlet portion. After the introduction of the first fluid into the first accommodation space was completed, 100 μl of a culture medium as a second fluid was introduced into the second accommodation space through the second inlet portion.\nIn each of Examples 1-8 and Comparative Examples 1-4, 10 cell culture test devices having the same structure were manufactured. A determination was made as to whether the solid thin films of the first fluid were defective. The susceptibilities to the antibiotic at four selected points of each first accommodation space were evaluated. The four points (a, b, c, and d) were at right angles to the first inlet portion. […] The solid thin film in the first accommodation space was visually observed to determine whether the solid thin film was defective.\nParticularly, the effect of the antibiotic was pronounced at ≥1 mg/ml.", "data": [{"substance": "Colistin", "values": [{"measurement": "response of bacteria in solid thin film to colistin", "setting": "after 6 h, 0 to 2 mg/ml colistin (FIG. 10)", "result": "Clear responses were observed"}, {"measurement": "colistin concentration at which the effect of the antibiotic was pronounced", "setting": "observation after 6 h, concentrations tested 0, 0.12, 0.25, 0.5, 1, 2 mg/ml (FIG. 10)", "result": "≥ 1", "unit": "mg/mL"}]}]}
